# Measurements taken from publication PMC6081437, “The potency of the broad spectrum bacteriocin, bactofencin A, against staphylococci is highly dependent on primary structure, N-terminal charge and disulphide formation” (Scientific Reports, 2018).
# Where two headings read alike, the source gives them in different places. Bridge positions count the residues as written; N and C are the ends. Ends that are not written are not given here. Peptide text beside a SMILES is read from it.
# Experiments:
# S. aureus DPC5246 = format: cell-based, Staphylococcus aureus
# Procedure, shortened: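 Agar well diffusion assay: peptides in 50 mM sodium phosphate pH 6.8, 1-in-4 dilutions from 1000 µM stock (250 to 0.24 µM) applied to S. aureus DPC5246 indicator plates at 37 °C. MIC is the lowest concentration giving an inhibition zone, in triplicate; concentrations rounded to whole numbers.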
# Listeria innocua DPC3572 = format: cell-based
# Description: (§1) Peptides were resuspended at 1000 µM in 50 mM sodium phosphate buffer pH 6.8 and checked for purity by MALDI-TOF-MS. Peptides were serially diluted 1 in 4 to give a dilution series of 250, 62.50, 15.63, 3.91, 0.98 and 0.24 µM and assayed by the agar well diffusion assay described by Ryan et al.[19]. Briefly, 50 µl aliquots of each peptide concentration were plated on a S. aureus DPC5246 indicator plate and the plate incubated at 37 °C. Peptide activity (Minimum Inhibitory Concentration (MIC)) was taken as the lowest concentration of peptide to give a zone of inhibition. All assays were performed in triplicate. The dilution series values were rounded to the nearest whole number to give 1000, 250, 63, 16, 4, 1 and 0.25 µM and data is colour coded for ease of interpretation.
# (§2) Bactofencin R8Q and bactofencin R8K were synthesised as described above and their activity compared to bactofencin A against S. aureus DPC5246, Listeria innocua DPC3572 and L. monocytogenes ATCC 23074.
# [1] = test system: L. monocytogenes ATCC 23074; format: cell-based, Listeria monocytogenes
# Description: as §1, §2
# Listeria spp. = details: cell free supernatants of L plantarum ST31 against L. innocua and L. monocytogenes; cited from earlier work
# From the text: Todorov et al. (1999) previously described plantaricin ST31, a bacteriocin with an amino acid sequence determined to be KRKKHRXQVYNNGMPTGMYR, produced by a sourdough isolate Lactobacillus plantarum ST31, with a reported mass of 2755 + /− 0.3 Da[20]. Substitution of Cys for X results in a peptide with a mass of 2468 Da. However if tryptophan and cysteine, the C terminal amino acids of bactofencin A are included, a mass of 2757 Da is obtained and subsequent oxidation of cysteines gives the published mass, 2755 Da.
molecule,measurement,setting,value
CSCC[C@@H]1NC(=O)CNC(=O)[C@H]([C@@H](C)O)NC(=O)[C@@H]2CCCN2C(=O)[C@H](CCSC)NC(=O)CNC(=O)[C@H](CC(N)=O)NC(=O)[C@H](CC(N)=O)NC(=O)[C@H](Cc2ccc(O)cc2)NC(=O)[C@H](C(C)C)NC(=O)[C@H](CCC(N)=O)NC(=O)[C@@H](NC(=O)[C@H](CCCNC(=N)N)NC(=O)[C@H](Cc2c[nH]cn2)NC(=O)[C@H](CCCCN)NC(=O)[C@H](CCCCN)NC(=O)[C@H](CCCNC(=N)N)NC(=O)[C@@H](N)CCCCN)CSSC[C@@H](C(=O)O)NC(=O)[C@H](Cc2c[nH]c3ccccc23)NC(=O)[C@H](CCCNC(=N)N)NC(=O)[C@H](Cc2ccc(O)cc2)NC1=O [bactofencin R8Q] (H-KRKKHRCQVYNNGMPTGMYRWC-OH; disulfide 7-22; N-terminus assumed),"Activity (Minimum Inhibitory Concentration, MIC)","S. aureus DPC5246; agar well diffusion, 50 µl aliquots of 1 in 4 serial dilutions from 1000 µM in 50 mM sodium phosphate buffer pH 6.8, 37 °C, lowest concentration giving a zone of inhibition, triplicate, values rounded to whole numbers",1 µM
same,Activity (MIC),"Listeria innocua DPC3572; L. innocua DPC3572, agar well diffusion",250 µM
same,Activity (MIC),"[1]; L. monocytogenes ATCC 23074, agar well diffusion",250 µM
CSCC[C@@H]1NC(=O)CNC(=O)[C@H]([C@@H](C)O)NC(=O)[C@@H]2CCCN2C(=O)[C@H](CCSC)NC(=O)CNC(=O)[C@H](CC(N)=O)NC(=O)[C@H](CC(N)=O)NC(=O)[C@H](Cc2ccc(O)cc2)NC(=O)[C@H](C(C)C)NC(=O)[C@H](CCCNC(=N)N)NC(=O)[C@@H](NC(=O)[C@H](CCCNC(=N)N)NC(=O)[C@H](Cc2c[nH]cn2)NC(=O)[C@H](CCCCN)NC(=O)[C@H](CCCCN)NC(=O)[C@H](CCCNC(=N)N)NC(=O)[C@@H](N)CCCCN)CSSC[C@@H](C(=O)O)NC(=O)[C@H](Cc2c[nH]c3ccccc23)NC(=O)[C@H](CCCNC(=N)N)NC(=O)[C@H](Cc2ccc(O)cc2)NC1=O [bactofencin A] (H-KRKKHRCRVYNNGMPTGMYRWC-OH; disulfide 7-22),"Activity (Minimum Inhibitory Concentration, MIC)","S. aureus DPC5246; DPC5246, pH 6.8",1 µM
same,Activity (MIC),Listeria innocua DPC3572,63 µM
same,Activity (MIC),[1]; ATCC 23074,63 µM
CSCC[C@@H]1NC(=O)CNC(=O)[C@H]([C@@H](C)O)NC(=O)[C@@H]2CCCN2C(=O)[C@H](CCSC)NC(=O)CNC(=O)[C@H](CC(N)=O)NC(=O)[C@H](CC(N)=O)NC(=O)[C@H](Cc2ccc(O)cc2)NC(=O)[C@H](C(C)C)NC(=O)[C@H](CCCNC(=N)N)NC(=O)[C@@H](NC(=O)[C@H](CCCNC(=N)N)NC(=O)[C@H](Cc2c[nH]cn2)NC(=O)[C@H](CCCCN)NC(=O)[C@H](CCCCN)NC(=O)[C@H](CCCNC(=N)N)NC(=O)[C@@H](N)CCCCN)CSSC[C@@H](C(=O)O)NC(=O)[C@H](Cc2c[nH]c3ccccc23)NC(=O)[C@H](CCCNC(=N)N)NC(=O)[C@H](C)NC1=O [Y19A] (H-KRKKHRCRVYNNGMPTGMARWC-OH; disulfide 7-22),"Activity (Minimum Inhibitory Concentration, MIC)","S. aureus DPC5246; DPC5246, pH 6.8",1 µM
CSCC[C@@H]1NC(=O)CNC(=O)[C@H]([C@@H](C)O)NC(=O)[C@@H]2CCCN2C(=O)[C@H](CCSC)NC(=O)CNC(=O)[C@H](CC(N)=O)NC(=O)[C@H](CC(N)=O)NC(=O)[C@H](Cc2ccc(O)cc2)NC(=O)[C@H](C(C)C)NC(=O)[C@H](CCCNC(=N)N)NC(=O)[C@@H](NC(=O)[C@H](CCCNC(=N)N)NC(=O)[C@H](Cc2c[nH]cn2)NC(=O)[C@H](CCCCN)NC(=O)[C@H](CCCCN)NC(=O)[C@@H](N)CCCNC(=N)N)CSSC[C@@H](C(=O)O)NC(=O)[C@H](Cc2c[nH]c3ccccc23)NC(=O)[C@H](CCCNC(=N)N)NC(=O)[C@H](Cc2ccc(O)cc2)NC1=O [R2-C22] (H-RKKHRCRVYNNGMPTGMYRWC-OH; disulfide 6-21; N-terminus assumed),"Activity (Minimum Inhibitory Concentration, MIC)","S. aureus DPC5246; DPC5246, pH 6.8",1 µM
same,"activity compared with bactofencin A, in words","S. aureus DPC5246; S. aureus DPC5246, agar well diffusion",no effect on activity
"KRKKHRXQVYNNGMPTGMYR [plantaricin ST31, bacteriocin produced by sourdough isolate Lactobacillus plantarum ST31 (Todorov et al. 1999); likely natural R8Q variant of bactofencin A]","activity against Listeria spp., in words",Listeria spp.,inactive
KRKKHRARVYNNGMPTGMYRWA [C7A-C22A],"Activity (Minimum Inhibitory Concentration, MIC)","S. aureus DPC5246; DPC5246, pH 6.8",16 µM
same,fold reduction in activity compared with bactofencin A (wild type),"S. aureus DPC5246; S. aureus DPC5246, agar well diffusion MIC",16 fold
CSCC[C@@H]1NC(=O)CNC(=O)[C@H](C)NC(=O)[C@@H]2CCCN2C(=O)[C@H](CCSC)NC(=O)CNC(=O)[C@H](CC(N)=O)NC(=O)[C@H](CC(N)=O)NC(=O)[C@H](Cc2ccc(O)cc2)NC(=O)[C@H](C(C)C)NC(=O)[C@H](CCCNC(=N)N)NC(=O)[C@@H](NC(=O)[C@H](CCCNC(=N)N)NC(=O)[C@H](Cc2c[nH]cn2)NC(=O)[C@H](CCCCN)NC(=O)[C@H](CCCCN)NC(=O)[C@H](CCCNC(=N)N)NC(=O)[C@@H](N)CCCCN)CSSC[C@@H](C(=O)O)NC(=O)[C@H](Cc2c[nH]c3ccccc23)NC(=O)[C@H](CCCNC(=N)N)NC(=O)[C@H](Cc2ccc(O)cc2)NC1=O [T16A] (H-KRKKHRCRVYNNGMPAGMYRWC-OH; disulfide 7-22),"Activity (Minimum Inhibitory Concentration, MIC)","S. aureus DPC5246; DPC5246, pH 6.8",16 µM
CSCC[C@@H]1NC(=O)CNC(=O)[C@H]([C@@H](C)O)NC(=O)[C@@H]2CCCN2C(=O)[C@H](CCSC)NC(=O)CNC(=O)[C@H](CC(N)=O)NC(=O)[C@H](CC(N)=O)NC(=O)[C@H](Cc2ccc(O)cc2)NC(=O)[C@H](C(C)C)NC(=O)[C@H](CCCNC(=N)N)NC(=O)[C@@H](NC(=O)[C@H](C)NC(=O)[C@H](Cc2c[nH]cn2)NC(=O)[C@H](CCCCN)NC(=O)[C@H](CCCCN)NC(=O)[C@H](CCCNC(=N)N)NC(=O)[C@@H](N)CCCCN)CSSC[C@@H](C(=O)O)NC(=O)[C@H](Cc2c[nH]c3ccccc23)NC(=O)[C@H](CCCNC(=N)N)NC(=O)[C@H](Cc2ccc(O)cc2)NC1=O [R6A] (H-KRKKHACRVYNNGMPTGMYRWC-OH; disulfide 7-22),"Activity (Minimum Inhibitory Concentration, MIC)","S. aureus DPC5246; DPC5246, pH 6.8",1 µM
CSCC[C@@H]1NC(=O)CNC(=O)[C@H]([C@@H](C)O)NC(=O)[C@@H]2CCCN2C(=O)[C@H](CCSC)NC(=O)CNC(=O)[C@H](CC(N)=O)NC(=O)[C@H](CC(N)=O)NC(=O)[C@H](C)NC(=O)[C@H](C(C)C)NC(=O)[C@H](CCCNC(=N)N)NC(=O)[C@@H](NC(=O)[C@H](CCCNC(=N)N)NC(=O)[C@H](Cc2c[nH]cn2)NC(=O)[C@H](CCCCN)NC(=O)[C@H](CCCCN)NC(=O)[C@H](CCCNC(=N)N)NC(=O)[C@@H](N)CCCCN)CSSC[C@@H](C(=O)O)NC(=O)[C@H](Cc2c[nH]c3ccccc23)NC(=O)[C@H](CCCNC(=N)N)NC(=O)[C@H](Cc2ccc(O)cc2)NC1=O [Y10A] (H-KRKKHRCRVANNGMPTGMYRWC-OH; disulfide 7-22),"Activity (Minimum Inhibitory Concentration, MIC)","S. aureus DPC5246; DPC5246, pH 6.8",4 µM
